Columns and labels:
[1] = test system: MDA-MB-231 human breast cancer cells; test: MDA-MB-231 live cell count by trypan blue exclusion assay; format: cell-based; settings: 24 hours
Description: To examine whether co-administration of GSSSG affects anti-tumor effects of paclitaxel, we conducted experiments using MDA-MB-231, a human breast cancer cell line (HTB-26, ATCC). Cells were cultured in the medium of 90% RPMI1640 (Corning, Cat No. 10-040-CV), 10% FBS, and 1% penicillin/streptomycin. After being seeded into a 96-well plate at the density of 20,000/well and cultured overnight, they were exposed to different concentrations of paclitaxel (0.125 μM, 0.25 μM, 0.5 μM, 1 μM, and 2 μM) and incubated for 24 hours. Cell viability was evaluated by LDH Cytotoxicity Detection Kit (Roche, Cat No. 11644793001). Briefly, a plate was centrifuged at 250×g for 10 minutes. […] After mixing with assay enzyme for 30 minutes at 25° C., absorbance was measured at wavelength 492 nm to determine cell viability. Inhibitory effects of paclitaxel were calculated by half-maximal inhibitory concentration (IC50). […] After being stripped by 0.25% trypsin, live cells were counted under 0.04% trypan blue. Five wells were evaluated per group.
Sample sizes for behavior test were chosen based on a previous study. All values are expressed as mean±standard deviation (SD). The behavior test results were analyzed in the mixed effect model because the behavior was measured repeatedly over five times from the same mice, and individual differences at baseline were confirmed in the preliminary study. […]

[2] = test system: Nrf2-dependent antioxidant signaling in DRG; test: real-time qPCR of antioxidant genes in lumbar DRG; format: in vivo, mice; settings: 2 hours after single 16 mg/kg paclitaxel i.p. with or without 50 mg/kg GSSSG oral
Description: Changes in gene expression in lumber dorsal root ganglions (DRG) induced by paclitaxel and GSSSG were examined with real-time qPCR after a single administration of paclitaxel with or without GSSSG. We simultaneously administered 16 mg/kg paclitaxel by intraperitoneal injection and 50 mg/kg GSSSG by oral gavage and examined the mRNA expression 2 hours later. Lumbar DRG were isolated from mice as described previously. Removed DRG were immersed in RNA later (Invitrogen, Cat No. AM7020) at 4° C. overnight. After retrieving from RNA later, they were stored at −80° C. DRGs were homogenized in TRIzol reagent (ThermoFisher Scientific, Cat No. 15596026) and mixed with chloroform. After centrifugation at 14000×g at 4° C. for 15 minutes, the transparent top layer was transferred to a new tube. The samples were mixed with 400 μl of isopropanol and incubated at −20° C. for 20 minutes. After centrifugation at 14000×g at 4° C. for 15 minutes, the pellets were collected, mixed with 70% ethanol, and centrifuged at 14000×g at 4° C. for 10 minutes. The pellets were dried for 10 minutes and incubated with 50 μl of nuclease-free water. Complementary DNA was synthesized using the cDNA Reverse Transcription Kit (Applied Biosystems, Cat No. 4368814) and quantitative PCR was performed by using SYBR green (Applied Biosystems, Cat No. A46109). Relative quantification of gene expression was performed via 2^−ΔΔCT method.

[3] = test system: primary DRG neurons; test: primary DRG neurons exposed to paclitaxel: Sholl analysis and axonal mitochondria (NF200, MitoTracker); format: cell-based, mice
Description: Primary DRG neurons were prepared from 8 to 10-week old mice as described previously. Briefly, lumber DRG (L1 to L6) were isolated from mice and centrifuged at 176×g (1000 rpm) for 3 minutes. After aspirating the solution, DRG were incubated with Dispase-II Solution (Sigma-Aldrich, Cat No. SCM133) and collagenase type II (Worthington, Cat No. LS004176) for 70 minutes and with 0.25% trypsin for 5 minutes. Subsequently triturated by frame polished glass pipet, neurons were seeded on a 12-well plate with 15 mm coverslip. Cells were incubated in Neurobasal A-medium with 2% B27 supplement (Gibco, Cat No. 10889038), 1% penicillin/streptomycin, 1% Glutamax (Gibco, Cat No. 35050061), and nerve growth factor (Sigma Aldrich, Cat No. N6009) for 24 hours. After 24 hours, they were exposed to 100 nM of paclitaxel with or without 500 nM of GSSSG or PTNSSS for one hour and 50 nM of MitoTracker (Invitrogen, Cat No. M22426) for 30 minutes. After fixing by 4% paraformaldehyde for 10 minutes at room temperature, cells were immersed in 0.2% Triton X-100 in PBS for 7 minutes and washed by PBS. They were incubated with anti-NF200 antibody (1:400, mouse, Sigma-Aldrich, Cat No. N0142) overnight at 4° C. and with the secondary antibody (1:1000, donkey anti-mouse, Abcam, Cat No. ab150105) for one hour at room temperature. After being covered with fluoroshield mounting medium with DAPI (Sigma-Aldrich, Cat No. F6057), 9-10 cells per group (3 mice per group) were imaged on confocal microscopy (ZEISS LSM 800, Carl Zeiss, Thornwood, NY) using a 63× oil immersion objectives lens with 1,024×1,024 pixels image size.
Effects of PTNSSS and GSSSG on axonal integrity were examined in cultured murine primary DRG neurons incubated with paclitaxel. […] Morphology of neurons, the number, length, and branching of neurites, was analyzed by Sholl analysis implemented in ImageJ [30]. Sholl analysis draws equally spaced circles from the soma and counts the number of intersections between neurites and circles to quantify neuronal morphology (FIG. 8C).

[4] = 500 nM GSSSG with 100 nM paclitaxel for one hour, vs paclitaxel

number of mitochondria in axons ([3]; 100 nM paclitaxel for one hour) | elongation of axons (Sholl analysis) ([3]; 100 nM paclitaxel for one hour, vs control) | Compound | number of alive MDA-MB-231 cells ([1]; 2 μM paclitaxel + 10 μM GSSSG) | Nrf2 mRNA levels [2] | expression of GCLC [2] | expression of HO1 [2] | levels of NQO1 mRNA [2] | axonal elongation (Sholl analysis) ([3]; 500 nM GSSSG with 100 nM paclitaxel for one hour, >160 μm from soma, vs paclitaxel) | number of mitochondria in axons [3, 4] | ratio of the total mitochondria length to axonal length [3, 4] | number of alive MDA-MB-231 cells ([1]; 2 μM paclitaxel alone) | ratio of the total mitochondria length to axonal length ([3]; 100 nM paclitaxel for one hour)
– | – | N[C@@H](CCC(=O)N[C@@H](CSSSC[C@H](NC(=O)CC[C@H](N)C(=O)O)C(=O)NCC(=O)O)C(=O)NCC(=O)O)C(=O)O [GSSSG, glutathione trisulfide] | 48.3 % of control cells | increased Nrf2 mRNA levels | upregulated | upregulated | modestly increased | restored axonal elongation | prevented paclitaxel-induced decrease | prevented paclitaxel-induced decrease of the ratio of the total mitochondria length to axonal length | – | –
decreased | hampered elongation of axons | CC(=O)O[C@H]1C(=O)[C@@]2(C)[C@H]([C@H](OC(=O)c3ccccc3)[C@]3(O)C[C@H](OC(=O)[C@H](O)[C@@H](NC(=O)c4ccccc4)c4ccccc4)C(C)=C1C3(C)C)[C@]1(OC(C)=O)CO[C@@H]1C[C@@H]2O [paclitaxel, Paclitaxel, reference compound] | – | increased Nrf2 mRNA levels | not paclitaxel alone | not paclitaxel alone | not paclitaxel alone | – | – | – | 44.9 % of control cells | decreased the ratio of the total mitochondria length to axonal length
